34 compounds from the supplement of paper PMC4862054 can be followed below.

Assay in all cases: normalised response (% of control), CellTox Green; higher = less cell death (100 = DMSO, 0 = benzethonium chloride kill control)
Holding throughout (settings): incubation time: 72 h

The subject of one assay is CAL-148. In a few lines: (§1)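 For each plate, 0.1 % DMSO was set to 100 and a positive kill control to 0. Breast cancer cell lines (20 µl suspension) were seeded into 384-well plates already holding compound at 5 concentrations in 10-fold steps over a 10,000-fold range chosen per compound, and incubated for 72 h. CellTox Green fluorescence at 485/520 nm was read before CellTiter-Glo luminescence, which followed 10 min at room temperature. Each value is the normalised signal at one concentration.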

A further assay has as its system DU-4475. In short, it runs like this:
as §1

Another assay has as its system MDA-MB-468. In short, it runs like this: as §1

Each structure is given as a SMILES string.

On to `Cc1c(N)nc([C@H](CC(N)=O)NC[C@H](N)C(N)=O)nc1C(=O)N[C@H](C(=O)N[C@H](C)[C@@H](O)[C@H](C)C(=O)N[C@H](C(=O)NCCc1nc(-c2nc(C(=O)NCCC[S+](C)C)cs2)cs1)[C@@H](C)O)[C@@H](OC1OC(CO)C(O)C(O)C1OC1OC(CO)C(O)C(OC(N)=O)C1O)c1cnc[nH]1` (stereo not given in full) [Bleomycin] (1000 nM), for which the normalised response with CAL-148 stood at 58.4%; with DU-4475, 97.5%; with MDA-MB-468, 138%.

As to `Cc1c(N)nc([C@H](CC(N)=O)NC[C@H](N)C(N)=O)nc1C(=O)N[C@H](C(=O)N[C@H](C)[C@@H](O)[C@H](C)C(=O)N[C@H](C(=O)NCCc1nc(-c2nc(C(=O)NCCC[S+](C)C)cs2)cs1)[C@@H](C)O)[C@@H](OC1OC(CO)C(O)C(O)C1OC1OC(CO)C(O)C(OC(N)=O)C1O)c1cnc[nH]1` (stereo not given in full) [Bleomycin] (10000 nM), the normalised response in the assay with CAL-148 was found to be 47.9%; in the assay with DU-4475, 92.1%; in the assay on MDA-MB-468, 201%.

For the compound `Cc1cc2c(F)c(Oc3ncnn4cc(OC[C@@H](C)O)c(C)c34)ccc2[nH]1` [Brivanib] (100 nM), the normalised response in the assay on CAL-148 was found to be 104%; with DU-4475, 104%; in the assay on MDA-MB-468 it was 100%.

On to `Cc1cc2c(F)c(Oc3ncnn4cc(OC[C@@H](C)O)c(C)c34)ccc2[nH]1` [Brivanib] (1000 nM), for which the normalised response in the assay on CAL-148 came to 99.3%; with DU-4475, 102%; in the assay with MDA-MB-468, 99.9%.

Consider `CCCCCOC(=O)Nc1nc(=O)n([C@@H]2O[C@H](C)[C@@H](O)[C@H]2O)cc1F` [Capecitabine] (1000 nM), for which the normalised response in the assay on CAL-148 came to 76.8%; with DU-4475 it was 99.2%.

For the compound `CCCCCOC(=O)Nc1nc(=O)n([C@@H]2O[C@H](C)[C@@H](O)[C@H]2O)cc1F` [Capecitabine] (10000 nM), the normalised response with CAL-148 was determined as 99.5%; in the assay on DU-4475, 97.5%; in the assay on MDA-MB-468, 100%.

Consider `CC(C)C[C@H](NC(=O)[C@H](CCc1ccccc1)NC(=O)CN1CCOCC1)C(=O)N[C@@H](Cc1ccccc1)C(=O)N[C@@H](CC(C)C)C(=O)[C@@]1(C)CO1` [Carfilzomib] (100 nM), for which the normalised response is 14.6% in the assay on CAL-148, 86.1% in the assay on DU-4475 and -95.8% in the assay on MDA-MB-468.

Turning to `CC(C)C[C@H](NC(=O)[C@H](CCc1ccccc1)NC(=O)CN1CCOCC1)C(=O)N[C@@H](Cc1ccccc1)C(=O)N[C@@H](CC(C)C)C(=O)[C@@]1(C)CO1` [Carfilzomib] (1000 nM), the normalised response was 12.2% in the assay with CAL-148, 87.3% with DU-4475 and -84% with MDA-MB-468.

For the compound `Nc1nc(Cl)nc2c1ncn2[C@@H]1O[C@H](CO)[C@@H](O)[C@@H]1F` [Clofarabine] (1000 nM), the values for the normalised response with CAL-148, in the assay with DU-4475 and in the assay on MDA-MB-468 were 67.1%, 103% and 145%, respectively.

Consider `Nc1nc(Cl)nc2c1ncn2[C@@H]1O[C@H](CO)[C@@H](O)[C@@H]1F` [Clofarabine] (10000 nM), for which the normalised response came out at 65.1% in the assay on CAL-148, 89.1% in the assay with DU-4475 and 73.1% in the assay with MDA-MB-468.

Take `CCN(CC)CCOc1ccc(C(=C(Cl)c2ccccc2)c2ccccc2)cc1` [Clomifene] (1000 nM): the normalised response in the assay with CAL-148 was 104%; with DU-4475, 99.3%; with MDA-MB-468, 68.9%.

On to `CCN(CC)CCOc1ccc(C(=C(Cl)c2ccccc2)c2ccccc2)cc1` [Clomifene] (10000 nM), for which the normalised response with CAL-148 was 79.6%; with DU-4475, 53.4%; in the assay on MDA-MB-468 it was 93.8%.

For the compound `C[C@@H]1C[C@H]2[C@@H]3CCC4=CC(=O)C=C[C@]4(C)[C@@]3(F)[C@@H](O)C[C@]2(C)[C@@]1(O)C(=O)CO` [Dexamethasone] (1000 nM), the figures for the normalised response with DU-4475 and with MDA-MB-468 were 96% and 129%, respectively.

For `C[C@@H]1C[C@H]2[C@@H]3CCC4=CC(=O)C=C[C@]4(C)[C@@]3(F)[C@@H](O)C[C@]2(C)[C@@]1(O)C(=O)CO` [Dexamethasone] (10000 nM), the normalised response in the assay with CAL-148 turned out to be 100%; in the assay with DU-4475, 97.4%; with MDA-MB-468, 135%.

Regarding `CC(C)C(=O)Nc1ccc([N+](=O)[O-])c(C(F)(F)F)c1` [Flutamide] (1000 nM), the normalised response in the assay on CAL-148 turned out to be 104%; in the assay with DU-4475 it was 99.8%; with MDA-MB-468, 144%.

Take `CC(C)C(=O)Nc1ccc([N+](=O)[O-])c(C(F)(F)F)c1` [Flutamide] (10000 nM): the normalised response in the assay with DU-4475 was 98.6%; in the assay on MDA-MB-468, 124%.

As for `COc1cc2c(Oc3ccc(NC(=O)C4(C(=O)Nc5ccc(F)cc5)CC4)cc3F)ccnc2cc1OCCCN1CCOCC1` [Foretinib] (100 nM), the normalised response with CAL-148 amounted to 102%; with DU-4475 it was 101%; with MDA-MB-468, 97.5%.

Consider `COc1cc2c(Oc3ccc(NC(=O)C4(C(=O)Nc5ccc(F)cc5)CC4)cc3F)ccnc2cc1OCCCN1CCOCC1` [Foretinib] (1000 nM), for which the normalised response was 33.1% in the assay on CAL-148, 95.2% in the assay with DU-4475 and 37.6% in the assay with MDA-MB-468.

Consider `NC(=O)NO` [Hydroxyurea] (10000 nM), for which the normalised response in the assay on CAL-148 was found to be 98.2%; in the assay on DU-4475, 103%; in the assay with MDA-MB-468 it was 81.7%.

Turning to `NC(=O)NO` [Hydroxyurea] (100000 nM), the normalised response in the assay with CAL-148 turned out to be 88.3%; in the assay on DU-4475, 97.6%; in the assay with MDA-MB-468, 104%.

Regarding `O=NN(CCCl)C(=O)NC1CCCCC1` [Lomustine] (1000 nM), the normalised response in the assay with CAL-148 came out at 106%; with DU-4475, 99.4%; with MDA-MB-468 it was 128%.

For `O=NN(CCCl)C(=O)NC1CCCCC1` [Lomustine] (10000 nM), the normalised response came out at 94.2% in the assay with CAL-148, 98.9% in the assay on DU-4475 and 77.9% in the assay with MDA-MB-468.

As for `O=C(O)CC[C@H]1CC[C@@](c2cc(F)ccc2F)(S(=O)(=O)c2ccc(Cl)cc2)CC1` [MK-0752] (100 nM), the normalised response in the assay with CAL-148 worked out at 59%; in the assay on DU-4475, 107%; in the assay with MDA-MB-468 it was 165%.

In the case of `O=C(O)CC[C@H]1CC[C@@](c2cc(F)ccc2F)(S(=O)(=O)c2ccc(Cl)cc2)CC1` [MK-0752] (1000 nM), the normalised response came out at 104% in the assay with DU-4475 and 106% in the assay with MDA-MB-468.

`NC1(c2ccc(-c3nc4ccn5c(=O)[nH]nc5c4cc3-c3ccccc3)cc2)CCC1` [MK-2206] (100 nM): the normalised response turned out to be 109% in the assay on CAL-148, 104% with DU-4475 and 116% in the assay with MDA-MB-468.

As for `NC(=O)c1cccc2cn(-c3ccc([C@@H]4CCCNC4)cc3)nc12` [MK-4827] (1000 nM), the normalised response is 80.5% in the assay on CAL-148, 97.8% in the assay on DU-4475 and 110% in the assay on MDA-MB-468.

On to `NC(=O)c1cccc2cn(-c3ccc([C@@H]4CCCNC4)cc3)nc12` [MK-4827] (10000 nM), for which the results for the normalised response in the assay with CAL-148, with DU-4475 and with MDA-MB-468 were 79.6%, 89.2% and 116%, respectively.

Regarding `O=C(c1cc(Cc2n[nH]c(=O)c3ccccc23)ccc1F)N1CCN(C(=O)C2CC2)CC1` [Olaparib] (1000 nM), the normalised response was 92.9% with CAL-148, 99.7% in the assay on DU-4475 and 122% in the assay with MDA-MB-468.

As to `CO[C@H](C(=O)[C@@H](O)[C@@H](C)O)[C@@H]1Cc2cc3cc(O[C@H]4C[C@@H](O[C@@H]5C[C@@H](O)[C@H](O)[C@@H](C)O5)[C@H](O)[C@@H](C)O4)c(C)c(O)c3c(O)c2C(=O)[C@H]1O[C@H]1C[C@@H](O[C@@H]2C[C@@H](O)[C@@H](O[C@@H]3C[C@](C)(O)[C@H](O)[C@@H](C)O3)[C@@H](C)O2)[C@H](O)[C@@H](C)O1` [Plicamycin] (1000 nM), the normalised response in the assay with CAL-148 was determined as 109%; in the assay with DU-4475, 104%.

In the case of `CO[C@H](C(=O)[C@@H](O)[C@@H](C)O)[C@@H]1Cc2cc3cc(O[C@H]4C[C@@H](O[C@@H]5C[C@@H](O)[C@H](O)[C@@H](C)O5)[C@H](O)[C@@H](C)O4)c(C)c(O)c3c(O)c2C(=O)[C@H]1O[C@H]1C[C@@H](O[C@@H]2C[C@@H](O)[C@@H](O[C@@H]3C[C@](C)(O)[C@H](O)[C@@H](C)O3)[C@@H](C)O2)[C@H](O)[C@@H](C)O1` [Plicamycin] (10000 nM), the figures for the normalised response in the assay with CAL-148, with DU-4475 and with MDA-MB-468 were 68.9%, 87.9% and 54%, respectively.

`C[C@]12C=CC(=O)C=C1CC[C@@H]1[C@@H]2C(=O)C[C@@]2(C)[C@H]1CC[C@]2(O)C(=O)CO` [Prednisone] (1000 nM): the values for the normalised response in the assay with CAL-148, with DU-4475 and in the assay on MDA-MB-468 were 73%, 101% and 83.2%, respectively.

In the case of `C[C@]12C=CC(=O)C=C1CC[C@@H]1[C@@H]2C(=O)C[C@@]2(C)[C@H]1CC[C@]2(O)C(=O)CO` [Prednisone] (10000 nM), the normalised response with CAL-148 was found to be 100%; in the assay with DU-4475, 103%; with MDA-MB-468 it was 99.5%.

As for `CN1CCN(c2nc(C3=C(c4c[nH]c5ccccc45)C(=O)NC3=O)c3ccccc3n2)CC1` [Sotrastaurin] (10000 nM), the normalised response in the assay with DU-4475 came out at 100%; in the assay with MDA-MB-468, 194%.

For `C[C@@H](C(=O)O)c1ccc(-c2ccccc2)c(F)c1` [Tarenflurbil] (1000 nM), the normalised response in the assay with DU-4475 was 96.6%; in the assay on MDA-MB-468, 112%.
